Legend:
Type in all cases: ADME, organism-based
Homo sapiens [1] = test: (§1) Pharmacokinetic parameters for Alprazolam evaluated after oral administration of alprazolam to subjects of different ages and health conditions.; parameters: route oral, dose Range 0.5 to 3; conditions: in vivo, po, dosed compound id 23, dosed compound name ALPRAZOLAM, gender male and female, tissue Plasma
[2] = as §1; parameters: route oral, dose Range 0.5 to 3; conditions: human, in vivo, dosed compound id 23, dosed compound name ALPRAZOLAM, gender male and female, tissue Plasma
Homo sapiens [3] = test: Evaluation of pharmacokinetic parameters for Alprazolam following single oral administration of Alprazolam, and following co-administration with multiple doses of carbamazepine.; conditions: in vivo, dose 0.8 mg, dosed compound id 23, dosed compound name ALPRAZOLAM, regimen Single dose, tissue Plasma
[4] = interact cpd dose 300 mg, inter cpd dos duration 10 days

For Cc1nnc2n1-c1ccc(Cl)cc1C(c1ccccc1)=NC2 [ALPRAZOLAM], which t1/2 (Homo sapiens [1]; dose Range 0.5 to 3 mg) is on record?
Its t1/2 is 11.2 h.

And the t1/2 (Homo sapiens [1])?
The t1/2 was 16.3 hr [middle of 5 runs].

And the Cmax ([2]; po)?
The Cmax was 8 to 37 ng/mL.

And the Tmax ([2]; dose Range 0.5 to 3 mg, route oral)?
Its Tmax is 1 to 2 h.

What about the CL (Homo sapiens [3]; [4]) of the same compound?
The CL was 2.13 mL/min/kg.

What about the t1/2 (Homo sapiens [3]; [4]) of the same compound?
Its t1/2 is 7.7 h.

What about the CL (Homo sapiens [3]) of the same compound?
The CL was 0.9 mL/min/kg.

What about the t1/2 (Homo sapiens [3]) of the same compound?
Its t1/2 is 17.1 h.

From ChEMBL document CHEMBL3832032, “DailyMed|setid=2238e083-08f2-0aa8-59b7-16b6d68dbd48 | ALPRAZOLAM - alprazolam tablet|Apotex Corp”
